PubChem BioAssay AID256 (DTP/NCI, 2004)
Toxic doses and inconclusive results are not listed. How the source made its calls: active means survival T/C of 150% or more; inactive means T/C below 125% in these data.

Test system: CD2F1 mice, L1210 leukemia ip, survival T/C
Assay: NCI In Vivo Anticancer Drug Screen. Data for tumor model L1210 Leukemia (intraperitoneal) in CD2F1 (CDF1) mice
Details: endpoint: mean survival time, higher = longer survival
Outline: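 Ratio T/C, where T is the treated-group value and C the vehicle-dosed control value, from mice implanted with a transplantable tumor.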

Measured: T/C

CC1C([N+]2(C)CCCCC2)CS1(=O)=O (stereo not given)
inactive: dose: 100.0 mg/kg/injection, schedule: Q04DX002 (ip), vehicle: saline 103 % of control | dose: 200.0 mg/kg/injection, schedule: Q04DX002 (ip), vehicle: saline 100 % of control | dose: 400.0 mg/kg/injection, schedule: Q04DX002 (ip), vehicle: saline 95 % of control

CC(O)(c1ccccc1)c1ccccc1
inactive: dose: 100.0 mg/kg/injection, schedule: Q01DX009 (ip), vehicle: saline with Tween-80 104 % of control | dose: 200.0 mg/kg/injection, schedule: Q01DX009 (ip), vehicle: saline with Tween-80 102 % of control | dose: 400.0 mg/kg/injection, schedule: Q01DX009 (ip), vehicle: saline with Tween-80 96 % of control

COc1cccc(NC(=S)NC(Cc2ccccc2)c2ccccc2)c1 (stereo not given)
inactive: dose: 100.0 mg/kg/injection, schedule: Q01DX001 (ip), vehicle: Klucel (hydroxypropylcellulose) (HPC) 101 % of control | dose: 200.0 mg/kg/injection, schedule: Q01DX001 (ip), vehicle: Klucel (hydroxypropylcellulose) (HPC) 91 % of control | dose: 400.0 mg/kg/injection, schedule: Q01DX001 (ip), vehicle: Klucel (hydroxypropylcellulose) (HPC) 96 % of control

CCNCc1cc(Nc2nc(NC3CCC(N(C)C)CC3)c3ccccc3n2)ccc1OC (stereo not given)
inactive: dose: 5.0 mg/kg/injection, schedule: Q01DX001 (ip), vehicle: saline 97 % of control | dose: 5.0 mg/kg/injection, schedule: Q01DX009 (ip), vehicle: saline 96 % of control | dose: 10.0 mg/kg/injection, schedule: Q01DX001 (ip), vehicle: saline 92 % of control | dose: 10.0 mg/kg/injection, schedule: Q01DX009 (ip), vehicle: saline 96 % of control | dose: 20.0 mg/kg/injection, schedule: Q01DX001 (ip), vehicle: saline 97 % of control | dose: 20.0 mg/kg/injection, schedule: Q01DX009 (ip), vehicle: saline 107 % of control

Nc1ncnc2c1c1c(=S)[nH]c(=S)[nH]c1n2C1OC(CO)C(O)C1O (stereo not given)
inactive: dose: 12.5 mg/kg/injection, schedule: Q01DX005 (ip), vehicle: distilled water + Tween-80 104 % of control | dose: 25.0 mg/kg/injection, schedule: Q01DX005 (ip), vehicle: distilled water + Tween-80 105 % of control | dose: 50.0 mg/kg/injection, schedule: Q01DX005 (ip), vehicle: distilled water + Tween-80 107 % of control | dose: 100.0 mg/kg/injection, schedule: Q01DX005 (ip), vehicle: distilled water + Tween-80 104 % of control | dose: 200.0 mg/kg/injection, schedule: Q01DX005 (ip), vehicle: distilled water + Tween-80 102 % of control

CC(=O)NC(C)NC(C)=O
inactive: dose: 100.0 mg/kg/injection, schedule: Q01DX001 (ip), vehicle: saline 103 % of control | dose: 200.0 mg/kg/injection, schedule: Q01DX001 (ip), vehicle: saline 103 % of control | dose: 400.0 mg/kg/injection, schedule: Q01DX001 (ip), vehicle: saline 103 % of control

C/C=C/C=C/C(=O)c1ccc(OC)cc1O
inactive: dose: 50.0 mg/kg/injection, schedule: Q04DX002 (ip), vehicle: saline with Tween-80 86 % of control | dose: 100.0 mg/kg/injection, schedule: Q04DX002 (ip), vehicle: saline with Tween-80 101 % of control | dose: 200.0 mg/kg/injection, schedule: Q04DX002 (ip), vehicle: saline with Tween-80 89 % of control | dose: 400.0 mg/kg/injection, schedule: Q04DX002 (ip), vehicle: saline with Tween-80 89 % of control

F/C(=C\c1ccccc1)c1ccccc1
inactive: dose: 50.0 mg/kg/injection, schedule: Q01DX001 (ip), vehicle: saline with Tween-80 110 % of control | dose: 100.0 mg/kg/injection, schedule: Q01DX001 (ip), vehicle: saline with Tween-80 108 % of control | dose: 200.0 mg/kg/injection, schedule: Q01DX001 (ip), vehicle: saline with Tween-80 101 % of control
